Experimental data as given in US20230094753A1, “NANOSTRUCTURE LIPID CARRIER DELIVERY SYSTEM, COMPOSITION, AND METHODS” (priority 2020, published 2023).

Test: CBD solubility in lipid excipients (about 0.345 g CBD exposed to 10 ml lipid)
Format: physicochemical
Conditions: approx. 0.345 g CBD in 10 ml
Method: Approximately 0.345 g of CBD was exposed to 10 ml of the listed lipid and solubility was assessed.

With `C=C(C)[C@@H]1CCC(C)=C[C@H]1c1c(O)cc(CCCCC)cc1O` [CBD, cannabidiol] the SOLUBILITY (solvent 1: Apricot Kernel Oil PEG-6 Esters) was “Medium CBD Solubility”, the SOLUBILITY (solvent 2: Corn Oil PEG-6 Ester) was “Medium CBD Solubility” and the SOLUBILITY (solvent 3: Ethoxydiglycol) was “Stability Problematic”. The SOLUBILITY (solvent 4: Glycerine soja (Soyean) oil (and) Glyceryl Distearate (and) Polyglyceryl-3 Dioleate) was “Medium CBD Solubility”, the SOLUBILITY (solvent 5: Glyceryl Linoleate) was “Bad CBD Solubility” and the SOLUBILITY (solvent 6: Glyceryl Oleate) was “Bad CBD Solubility”. The SOLUBILITY (solvent 7: PEG-8 Caprylic/Capric Glycerides) was “Stability Problematic”, the SOLUBILITY (solvent 8: Polyglyceryl-3-diolate) was “Bad CBD Solubility” and the SOLUBILITY (solvent 9: Propylene Glycol Caprate) was “Good CBD Solubility”. The SOLUBILITY (solvent 10: Propylene Glycol Laurate) was “Medium CBD Solubility”, the SOLUBILITY (solvent 13: PEG-8) was “Medium CBD Solubility” and the SOLUBILITY (solvent 18: Caprylic/Capric Triglyceride) was “Medium CBD Solubility”. The SOLUBILITY (solvent 19: PEG-8 Carylic/Capric Glycerides) was “Good CBD Solubility”, the SOLUBILITY (solvent 20: Glyceryl Caprylate/Caprate) was “Medium CBD Solubility” and the SOLUBILITY (solvent 21: Propylene Glycol Monocaprylate) was “Good CBD Solubility”. The SOLUBILITY (solvent 22: Olea Europaea (Olive) Oil) was “Bad CBD Solubility” and the SOLUBILITY (solvent 23: Glycine Soja (Soybean) Oil) was “Medium CBD Solubility”.
